Laboratory results taken from ChEMBL document CHEMBL5727955, “Aminopyrazoles as janus kinase inhibitors” (2020).

How the values were obtained:
[1] = target: Tyrosine-protein kinase JAK1 (Homo sapiens, UniProt P23458); assay: (§1) Biochemical HTRF Enzyme Assay Protocol: The basic assay protocol is as follows: First, 250 nL of diluted compounds in DMSO were dispensed into the wells of a dry 384-well Black plate (GreinerFluotrac™ catalog number: 781076; Greiner Bio-One GmbH, Frickenhausen, Germany) using a Labcyte Echo® 555 acoustic dispenser ([…], Sunnyvale, Calif., USA). Subsequent reagent additions employed an Agilent™ Bravo™ liquid handling system (Aligent Technologies, Santa Clara, Calif., USA). […] After equilibration, 2 μL of 10×ATP in 1× assay buffer was added to initiate the kinase reaction and the plates were shaken and then incubated at ambient temperature for 120 minutes. At the end of the incubation, 20 μL of 2× stop buffer (Streptavidin-Dylight 650/100 mL catalogue number: 8454B (Invitrogen™/Life Technologies/ThermoFisher Scientific Inc., Waltham, Mass., USA); Europium-tagged pY20 antibody (PerkinElmer™ catalogue number: AD0067 (PerkinElmer™, Waltham, Mass., USA)); EDTA; HEPES; and Triton™ X-100 (Sigma-Aldrich, St. Louis, Mo., USA) was added to quench the reaction.
[2] = target: Tyrosine-protein kinase JAK2 (Homo sapiens, UniProt O60674); assay: as §1
Chain of Tyrosine-protein kinase JAK2 (O60674 whole entry): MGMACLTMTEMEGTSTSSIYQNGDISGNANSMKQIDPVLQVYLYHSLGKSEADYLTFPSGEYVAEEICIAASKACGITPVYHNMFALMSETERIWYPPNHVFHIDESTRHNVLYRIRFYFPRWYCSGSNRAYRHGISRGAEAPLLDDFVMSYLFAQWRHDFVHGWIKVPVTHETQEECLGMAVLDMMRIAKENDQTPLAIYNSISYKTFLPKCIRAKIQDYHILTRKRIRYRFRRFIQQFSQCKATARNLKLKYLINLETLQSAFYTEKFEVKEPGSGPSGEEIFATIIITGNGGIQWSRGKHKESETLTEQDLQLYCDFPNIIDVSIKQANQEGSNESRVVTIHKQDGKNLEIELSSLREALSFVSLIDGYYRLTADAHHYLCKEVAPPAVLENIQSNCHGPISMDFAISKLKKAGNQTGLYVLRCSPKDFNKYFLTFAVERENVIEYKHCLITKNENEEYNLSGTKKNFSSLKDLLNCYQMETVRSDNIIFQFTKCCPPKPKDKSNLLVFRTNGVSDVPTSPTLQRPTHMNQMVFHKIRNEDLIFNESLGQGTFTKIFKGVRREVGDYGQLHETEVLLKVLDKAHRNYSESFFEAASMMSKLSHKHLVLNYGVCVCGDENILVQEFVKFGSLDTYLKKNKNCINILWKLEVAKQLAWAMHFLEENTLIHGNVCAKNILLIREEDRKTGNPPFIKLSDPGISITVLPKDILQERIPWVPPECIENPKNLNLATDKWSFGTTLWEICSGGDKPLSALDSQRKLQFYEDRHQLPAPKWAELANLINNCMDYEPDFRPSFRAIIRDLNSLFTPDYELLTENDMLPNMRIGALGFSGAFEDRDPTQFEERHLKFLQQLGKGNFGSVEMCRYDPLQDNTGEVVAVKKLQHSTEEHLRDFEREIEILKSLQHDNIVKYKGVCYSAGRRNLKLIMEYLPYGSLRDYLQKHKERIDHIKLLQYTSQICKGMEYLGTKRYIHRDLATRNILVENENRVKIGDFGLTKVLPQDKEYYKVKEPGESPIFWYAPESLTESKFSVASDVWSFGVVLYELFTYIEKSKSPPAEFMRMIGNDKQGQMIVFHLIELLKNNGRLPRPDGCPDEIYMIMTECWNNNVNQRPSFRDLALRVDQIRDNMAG

Chain of Tyrosine-protein kinase JAK1 (P23458 whole entry): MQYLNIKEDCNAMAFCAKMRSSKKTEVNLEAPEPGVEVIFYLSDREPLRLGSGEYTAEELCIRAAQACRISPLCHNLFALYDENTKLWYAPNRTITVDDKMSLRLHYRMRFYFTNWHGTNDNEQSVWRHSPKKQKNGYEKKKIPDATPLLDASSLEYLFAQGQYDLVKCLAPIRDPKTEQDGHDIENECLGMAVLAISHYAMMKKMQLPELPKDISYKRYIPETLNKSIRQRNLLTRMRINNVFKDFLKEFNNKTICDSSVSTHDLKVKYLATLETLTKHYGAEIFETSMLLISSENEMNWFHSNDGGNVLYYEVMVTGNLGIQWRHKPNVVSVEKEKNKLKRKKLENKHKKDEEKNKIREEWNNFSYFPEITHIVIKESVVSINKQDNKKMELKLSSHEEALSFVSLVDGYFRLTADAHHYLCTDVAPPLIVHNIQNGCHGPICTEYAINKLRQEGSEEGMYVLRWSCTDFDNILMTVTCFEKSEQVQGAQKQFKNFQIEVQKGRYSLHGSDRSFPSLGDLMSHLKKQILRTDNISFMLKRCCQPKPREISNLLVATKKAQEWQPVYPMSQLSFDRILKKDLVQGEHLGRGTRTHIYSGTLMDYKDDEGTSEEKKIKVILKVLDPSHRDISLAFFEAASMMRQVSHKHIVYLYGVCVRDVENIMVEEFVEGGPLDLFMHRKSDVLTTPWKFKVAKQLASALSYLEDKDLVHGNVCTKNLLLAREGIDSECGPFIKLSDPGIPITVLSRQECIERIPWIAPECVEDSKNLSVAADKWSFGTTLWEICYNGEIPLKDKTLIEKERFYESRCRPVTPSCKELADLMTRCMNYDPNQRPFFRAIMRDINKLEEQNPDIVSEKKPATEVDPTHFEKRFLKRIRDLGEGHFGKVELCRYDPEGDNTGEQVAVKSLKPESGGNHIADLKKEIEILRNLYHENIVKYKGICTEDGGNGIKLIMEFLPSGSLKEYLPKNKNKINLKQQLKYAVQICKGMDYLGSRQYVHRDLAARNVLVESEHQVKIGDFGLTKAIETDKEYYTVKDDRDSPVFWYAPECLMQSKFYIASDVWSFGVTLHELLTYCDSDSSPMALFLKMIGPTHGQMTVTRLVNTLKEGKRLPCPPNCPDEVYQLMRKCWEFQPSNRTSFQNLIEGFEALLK

Structure (SMILES): N#C[C@H]1CCOC[C@@H]1n1cc(C(N)=O)c(Nc2ccc(OC(F)(F)F)cc2)n1
- IC50 [1]: 0.16 nM
- IC50 [2]: 1.35 nM

Structure (SMILES): N#C[C@H]1CCOC[C@@H]1n1cc(C(N)=O)c(Nc2ccc(Cl)c(Cl)c2)n1
- IC50 [1]: 2.09 nM
